{"source": "patent US20240398774A1", "about": "“METHODS OF TREATING INFLAMMATORY DISEASES WITH A SELECTIVE GLUCOCORTICOID RECEPTOR MODULATOR” (ASTRAZENECA AB, priority 2021, published 2024)", "key": {"[1]": {"assay": "Continuous Glucose Monitoring (CGM) in type 2 diabetes patients, clinical trial NCT04556760", "assay_type": "in vivo, human", "description": "(§1) Patient population. In clinical trial NCT04556760, eligible patients were 18 to 75 years old. Eligible patients had diagnosis of type 2 diabetes mellitus for 6 months prior to screening, such as HbAlc in the diabetes range or fasting plasma glucose 126-220 mg/dL. Eligible patients were on stable metformin therapy for at least 4 weeks, where no significant dose change (increase or decrease≥500 mg/day) has occurred prior to screening and HbAlc 6%-9.5%, or on dual therapy with metformin in combination with SGLT2i or DPP4i and HbAlc 6%-8%. Participants on dual therapy required 2 weeks wash-out of SGLT2i or DPP4i.\n(§2) Study design. This was a randomized, double blind, multi-center, double dummy, and two-way cross-over study. The aim of the study was to compare the effect on glycaemic control and incretin response at equipotent doses of AZD9567 and prednisolone in diabetes patients. The AZD9567 and prednisolone doses were predicted to be equipotent, based on an ex vivo efficacy analysis from previous phase 1 studies. The study consisted of a total of three cohorts. Each cohort was treated for two 72-hour periods in a cross-over design, with a 3-week washout period between treatment periods as illustrated in FIG. 1. The total length of participant engagement (from screening to follow-up) is 79 days.\n(§3) Cohort 1 included 27 patients. The patents were randomized in a ratio of 1:1 to receive 72 mg/day (oral suspension) AZD9567 and 40 mg/day prednisolone over two 72 hour periods in a cross over design: 72 mg AZD9567 for 3 consecutive days of each treatment period followed by 40 mg prednisolone for 3 consecutive days of each treatment period [AB sequence group], or 40 mg prednisolone for 3 consecutive days of each treatment period followed by 72 mg AZD9567 for 3 consecutive days of each treatment period [BA sequence group].\nCohort 2 included 8 patients. The patents were randomized in a ratio of 1:1 to receive 40 mg/day (oral suspension) AZD9567 and prednisolone over two 72 hour periods in a cross over design: 40 mg AZD9567 for 3 consecutive days of each treatment period followed by 20 mg prednisolone for 3 consecutive days of each treatment period [AB sequence group] or 20 mg prednisolone for 3 consecutive days of each treatment period followed by 40 mg AZD9567 for 3 consecutive days of each treatment period [BA sequence group].\nCohort 3 included 9 patients. The patents were randomized in a ratio of 1:1 to receive placebo and 5 mg/day prednisolone over two 72 hour periods in a cross over design: placebo for 3 consecutive days of each treatment period followed by 5 mg prednisolone for 3 consecutive days of each treatment period [AB sequence group] or 5 mg prednisolone for 3 consecutive days of each treatment period followed by placebo for 3 consecutive days of each treatment period [BA sequence group]).\nCGM includes a normal diet and is reflective of daily glucose control under “real world” conditions. […]"}, "[2]": {"assay": "plasma pharmacokinetics in diabetic patients", "assay_type": "in vivo, human", "conditions": "oral dosing", "description": "as §2, with “days. […]” for “days.”"}, "[3]": {"tested_on": "transcription of tyrosine aminotransferase (TAT)", "assay": "TAT transcription in human hepatocytes in vitro", "assay_type": "cell-based", "conditions": "for upregulation of transcription of tyrosine aminotransferase (TAT): human hepatocytes in vitro"}, "[4]": {"assay": "Mixed Meal Tolerance Test (MMTT) in type 2 diabetes patients, clinical trial NCT04556760", "assay_type": "in vivo, human", "conditions": "for MMTT-stimulated insulin secretion / glucagon secretion after MMTT: Cohort 1, Day 4", "description": "as §1, §2, §3\nMMTT provides a fixed composition of protein, carbohydrates and fat, and is meant to mimic “normal” meal. It generally consists of 30.2 g protein, 19.6 g of fat, 75 g of carbohydrates with 6.6. g of fiber, totaling 612 kCal. It requires a standardized dinner the night before the test, 12 h fasting prior to the test, and standardized breakfast consumed (<30 min) at 7 AM (solid meal) consisting of pre-determined quantities of carbohydrates, proteins and fats. Sampling is done at −15, 10, 20, 30, 60, 75, 120, 180, and 240 min.\nThe primary endpoint was change in glucose AUC (0-4 h) versus baseline compared to prednisolone following a standardized mixed meal tolerance test (MMTT) on Days −1, 4, 27, and 31. The change from baseline in glucose AUC (0-4 h) was analyzed using a mixed model repeated measures (MMRM) with baseline included as covariate. […]"}, "[5]": {"tested_on": "hypothalamic-pituitary-adrenal (HPA) axis", "assay": "morning serum cortisol and adrenocorticotropic hormone in type 2 diabetes patients", "assay_type": "in vivo, human", "description": "as §2\nas §3, with “group]. […]” for “group].”"}, "joint inflammation": {"tested_on": "joint inflammation", "assay": "rat model of joint inflammation", "assay_type": "in vivo", "conditions": "compared with prednisolone"}, "[6]": {"assay": "safety and clinical outcomes in patients", "assay_type": "in vivo, human"}, "[7]": {"tested_on": "lipopolysaccharide (LPS)-stimulated tumour necrosis factor-α (TNFα) release", "assay": "ex vivo inhibition of LPS-stimulated TNFα release in human whole blood", "assay_type": "cell-based", "conditions": "compared with prednisolone"}}}
{"smiles": "C[C@]12C=CC(=O)C=C1CC[C@@H]1[C@@H]2[C@@H](O)C[C@@]2(C)[C@H]1CC[C@]2(O)C(=O)CO", "note": "[prednisolone, reference compound]", "values": [{"measurement": "differentiation on glycaemic control vs placebo on CGM", "setting": "[1]; Cohort 3: 5 mg/day prednisolone vs placebo", "value": "No differentiation"}, {"measurement": "systemic exposure in diabetic patients as compared to healthy volunteers in phase 1 study", "setting": "[2]", "value": "higher"}, {"measurement": "upregulation of transcription of tyrosine aminotransferase (TAT)", "setting": "[3]", "value": "upregulation"}, {"measurement": "MMTT-stimulated insulin secretion", "setting": "[4]", "value": "lower"}, {"measurement": "glucagon secretion after MMTT", "setting": "[4]", "value": "increased"}]}
{"smiles": "CC(C)[C@H](NC(=O)C(C)(F)F)[C@H](Oc1ccc2c(cnn2-c2ccc(=O)n(C)c2)c1)c1ccccc1", "note": "[AZD9567, 2,2-difluoro-N-[(1R,2S)-3-methyl-1-[1-(1-methyl-6-oxopyridin-3-yl)indazol-5-yl]oxy-1-phenylbutan-2-yl]propanamide]", "values": [{"measurement": "increase in mean daily glucose relative to glycaemic targets for type 2 diabetes patients (70-180 mg/dl)", "setting": "[1]; Cohort 1, 72 mg/day", "value": "within glycaemic targets"}, {"measurement": "HbAlc difference corresponding to mean daily glucose difference between AZD9567 and prednisolone", "setting": "[1]; Cohort 1, 48-72 h, based on estimated Average Glucose (eAG) equation", "value": 0.7, "unit": "%"}, {"measurement": "mean daily glucose increase as compared to prednisolone", "setting": "[1]; Cohort 1: 72 mg/day AZD9567 vs 40 mg/day prednisolone", "value": "significantly lower"}, {"measurement": "differentiation on glycaemic control versus prednisolone (CGM)", "setting": "[1]; Cohort 1: 72 mg/day AZD9567 vs 40 mg/day prednisolone, 3 days", "value": "clear and consistent differentiation"}, {"measurement": "HbAlc difference corresponding to mean daily glucose difference between AZD9567 and prednisolone", "setting": "[1]; Cohort 2, lower dose, based on eAG equation", "value": 0.4, "unit": "%"}, {"measurement": "mean daily glucose increase as compared to prednisolone", "setting": "[1]; Cohort 2: 40 mg/day AZD9567 vs 20 mg/day prednisolone", "value": "lower"}, {"measurement": "differentiation on glycaemic control versus prednisolone (CGM)", "setting": "[1]; Cohort 2: 40 mg/day AZD9567 vs 20 mg/day prednisolone, relative to Cohort 1", "value": "lower"}, {"measurement": "observed difference in mean daily glucose (CGM) vs prednisolone", "setting": "[1]; at 48-72 hrs, Target Value 1.221 mmol/L, Lower Reference Value 0.599 mmol/L", "value": 1.507, "unit": "mmol/L"}, {"measurement": "adrenocorticotropic hormone (ACTH) concentrations", "setting": "[5]; Cohort 1, change from baseline", "value": "indicative of preserved hypothalamic-pituitary-adrenal (HPA) axis capacity"}, {"measurement": "cortisol change during treatment", "setting": "[5]; Cohort 1, returning to baseline at follow-up", "value": "marked, target-related, reversible cortisol suppression"}, {"measurement": "anti-inflammatory effects in vivo in a rat model of joint inflammation", "setting": "joint inflammation", "value": "similar"}, {"measurement": "safety concerns following the analysis of Cohort 1", "setting": "[6]; Cohort 1, 72 mg/day for 3 days", "value": "No significant new safety concerns"}, {"measurement": "rate of treatment intensification (dose increase of current oral antidiabetic therapy, or start/addition of insulin) as compared to prednisone", "setting": "[6]; diagnosed diabetic patients", "value": "lower rate"}, {"measurement": "incidence of hospitalization vs prednisone", "setting": "[6]; heart failure patients", "value": "lower incidence"}, {"measurement": "incidence of progression to type 2 diabetes mellitus as compared to prednisone", "setting": "[6]; population predisposed to type 2 diabetes mellitus", "value": "lower incidence"}, {"measurement": "elimination half-life in diabetic patients as compared to healthy volunteers in phase 1 study", "setting": "[2]", "value": "increased"}, {"measurement": "systemic exposure in diabetic patients as compared to healthy volunteers in phase 1 study", "setting": "[2]", "value": "higher"}, {"measurement": "effect on prednisolone-induced upregulation of TAT transcription", "setting": "[3]; coadministered with prednisolone in primary human hepatocytes", "value": "dose-dependently reduces"}, {"measurement": "upregulation of transcription of tyrosine aminotransferase (TAT)", "setting": "[3]", "value": "does not upregulate"}, {"measurement": "difference in reduction of glucose AUC0-4h after MMTT (AZD9567 vs prednisolone)", "setting": "[4]; Cohort 1, 24 h after last dose (Day 4), 95CI 0.01, 8.88, p=0.05", "value": 4.54, "unit": "%"}, {"measurement": "MMTT-stimulated insulin secretion", "setting": "[4]", "value": "increased"}, {"measurement": "glucagon secretion after MMTT", "setting": "[4]", "value": "unaffected"}, {"measurement": "insulin:glucagon ratio", "setting": "[4]; Cohort 1, MMTT, vs prednisolone", "value": "marked improvement"}, {"measurement": "absolute difference in reduction of glucose AUC0-4h after MMTT (AZD9567 vs prednisolone)", "setting": "[4]; Cohort 1, 95% CI 9.40, 256.1, p=0.036", "value": 132.95, "unit": "mmol·min/L"}, {"measurement": "inhibition of LPS-stimulated TNFα release", "setting": "[7]", "value": "similar"}]}
